{
  "source": "paper PMC5020691",
  "about": "“Cell wall degradation is required for normal starch mobilisation in barley endosperm” (Scientific Reports, 2016)",
  "key": {"Agl97 (maltase) [1]": {"molecular_target": "T1, Agl97 (maltase) (Hordeum vulgare, UniProt Q9LLY2)", "T1 construct": "purified recombinant", "T1 sequence (Q9LLY2 24-879)": "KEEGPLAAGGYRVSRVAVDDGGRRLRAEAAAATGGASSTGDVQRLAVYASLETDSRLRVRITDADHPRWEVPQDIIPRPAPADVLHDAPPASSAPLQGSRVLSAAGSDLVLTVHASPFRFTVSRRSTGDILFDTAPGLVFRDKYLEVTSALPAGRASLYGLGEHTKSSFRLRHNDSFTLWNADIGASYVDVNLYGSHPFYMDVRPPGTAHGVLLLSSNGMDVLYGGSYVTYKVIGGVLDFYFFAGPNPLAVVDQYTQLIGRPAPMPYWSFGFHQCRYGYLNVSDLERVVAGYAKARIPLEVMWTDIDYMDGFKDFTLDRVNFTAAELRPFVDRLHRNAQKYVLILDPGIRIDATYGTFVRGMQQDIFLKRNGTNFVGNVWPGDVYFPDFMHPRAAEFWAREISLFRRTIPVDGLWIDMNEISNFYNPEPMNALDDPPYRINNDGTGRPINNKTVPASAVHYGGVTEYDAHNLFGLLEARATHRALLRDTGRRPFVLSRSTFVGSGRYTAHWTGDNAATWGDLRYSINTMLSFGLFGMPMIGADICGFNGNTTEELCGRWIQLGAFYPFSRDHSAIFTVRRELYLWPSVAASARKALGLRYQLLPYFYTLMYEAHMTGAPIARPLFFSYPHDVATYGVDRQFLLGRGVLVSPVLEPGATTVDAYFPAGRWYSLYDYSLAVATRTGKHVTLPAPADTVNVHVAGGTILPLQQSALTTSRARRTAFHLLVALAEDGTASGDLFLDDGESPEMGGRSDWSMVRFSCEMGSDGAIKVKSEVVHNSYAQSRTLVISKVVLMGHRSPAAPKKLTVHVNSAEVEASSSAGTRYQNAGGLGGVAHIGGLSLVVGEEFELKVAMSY", "assay": "4-nitrophenol release, absorbance […] nm", "format": "biochemical", "settings": "0.6 mM, 50 mM sodium acetate pH 4.5, 5 mM CaCl2, 37 °C"}, "Agl97 (maltase) [2]": {"molecular_target": "T1, Agl97 (maltase)", "assay": "inhibition of pNPG hydrolysis, absorbance […] nm", "format": "biochemical", "settings": "0.01-100 µM LAB; 0.6 mM pNPG, 50 mM sodium acetate pH 4.5, 5 mM CaCl2, 37 °C"}, "[3]": {"molecular_target": "AXAH activity of barley endosperm (arabinoxylan arabinofuranohydrolase, endogenous) (barley (endogenous in endosperm of cv NFC Tipple))", "assay": "SEC; endosperm extracts of seedlings at 4-10 dpi on a Sephacryl size exclusion column in 50 mM Tris/HCl pH 7.5, 150 mM NaCl; fractions assayed for enzyme activity; size estimated against protein standards"}},
  "data": [
    {"compound": "O=[N+]([O-])c1ccc(O[C@H]2O[C@H](CO)[C@@H](O)[C@H](O)[C@H]2O)cc1", "note": "[4-nitrophenyl α-D-glucopyranoside]", "values": [
      {"measurement": "4-nitrophenol release, absorbance 405 nm", "setting": "Agl97 (maltase) [1]", "result": "Purified recombinant Agl97 was assayed with pNPG"}
    ]},
    {"compound": "OC[C@@H]1NC[C@H](O)[C@H]1O", "note": "[LAB, 1,4-dideoxy-1,4-imino-L-arabinitol]", "values": [
      {"measurement": "% inhibition", "setting": "Agl97 (maltase) [2]", "result": "LAB inhibited the activity of purified recombinant maltase (Agl97)"}
    ]},
    {"compound": "AXAH activity of barley endosperm (arabinoxylan arabinofuranohydrolase, endogenous) (enzyme)", "values": [
      {"measurement": "stoichiometry N", "setting": "[3]", "result": 2}
    ]}
  ]
}
